The values that follow come from patent publication US7049396B2, “Synthetic peptides that inhibit leukocyte superoxide anion production and/or attract leukocytes” (priority 1995, dated 2006).

Values after ≈ are worked out from the molar mass of the structure shown. Where a SMILES comes first, the peptide text is derived from it.

In series [1] the test system is S. typhimurium, KSU isolate 7. Briefly: Lawn-spotting antibacterial assay (S. typhimurium). The series is classed as cell-based, Salmonella typhimurium. The note with it: 5 μl spotted, inactive segments up to 1 mg/ml.
The next series concerns S. typhimurium. Description: Postantibiotic effect (PAE). The series is classed as cell-based, Salmonella typhimurium. Particulars: 2 hr exposure. The protocol:
(§1) Plates were incubated at 37° C. for 18 hr. […] Viable bacteria were counted. Tests were repeated on three different days. […] The results were expressed as the mean ± standard deviation. […] S. choleraesuis, ATCC 6962 was used in this experiment. […] Slides were stained with LeukoStat solutions (Fisher, Pittsburgh, Pa.). […] At least 200 neutrophils were examined. […] Tests were repeated on three different days. Results were expressed as the mean±standard deviation.

Another series has as its target recombinant p47^phox (Homo sapiens, UniProt P14598). Description: Competitive ligand-blot binding assay. The protocol: Competitive ligand-blot assays were performed by incubating recombinant p47^phox (0.02 μM) with or without various concentrations (0.006, 0.06, and 0.6 μM) of PR-39 for 1 hr. at 37° C. and then with biotinylated PR-39 (0.06 μM) for an additional 1 hr. at 37° C. The solutions were dialyzed against ddH2O for 1 hr. at 4° C. before blotting to nitrocellulose (5 μl) and detection with a streptavidin alkaline-phosphatase detection system as described above.

Another series relates to E. coli, ATCC 25922. Description: Gel-overlay antibacterial assay. The series is classed as cell-based, Escherichia coli. Particulars: 10 μg peptide per lane, AU-PAGE gel overlaid with E. coli, 18 hr.
The subject of a further series is p67^phox. Briefly: Ligand-blot binding assay with biotinylated PR-39, p67phox. Particulars: neutrophil cytosolic proteins probed with biotinylated PR-39. As for the experimental part:
Regulation of neutrophil O2^− production by PR-26 and PR-39. • (i) O2^− production assays. Whole-cell O2^− production by por-cine peripheral blood neutrophils was determined by the superoxide dismutase-inhibitable reduction of ferricytochrome c as previously described (Shi et al., 1994a). Cell-free O2^− production was measured as previously described (Leto et al., 1991) using 96-well plates and a Molecular Devices Thermomax microplate reader (Menlo Park, Calif.). Reactions (100 μl) contained 10^6 cell equivalents of human neutrophil cytosol and 5×10^5 cell equivalents of deoxycholate-solubilized membranes prepared from human peripheral blood neutrophils. Reaction mixtures contained 50 mM potassium phosphate (pH 7), 0.2 mM acetylated cytochrome c, 4 mM MgCl2, 1 mM EGTA, 10 μM FAD, 1 μM GTP-γS, and 200 μM NADPH. The reactions were initiated by addition of 40 μM arachidonic acid. Control reactions contained 5 μg of superoxide dismutase. Superoxide anion generation was calculated based on superoxide dismutase-inhibitable changes in cytochrome c absorbance observed at 551 nm. The reactions were followed for 20 min. after addition of arachidonic acid, with absorbance readings taken at 1-min. intervals. Maximum rates of superoxide generation were calculated from a linear least squares fit of 10 consecutive 1-min. data points. […]

For series [2], the system named is rat intestinal epithelial cell line, IEC-6. The series is classed as cell-based. As for the experimental part:
Influence of PR-26 and PR-39 on intestinal epithelial cells. A nonradioactive assay based on the cellular conversion by viable cells of a tetrazolium salt into a blue formazan product was used to determine if PR-26 or PR-39 were toxic to intestinal epithelial cells. Ninety-six-well microtiter plates were seeded with the rat intestinal epithelial cell line, IEC-6, (5×10^4 cells/well) in DMEM containing 10% fetal bovine serum, 1% antibiotic/antimycotic, and […], and incubated at 37° C. for three days to achieve confluency. […] Well contents then were aspirated and monolayers were washed with medium. Medium (100 μl) and 15 μl of dye solution (Promega, Madison, Wis.) were added to each well and plates were incubated for 4 hr. at 37° C. Solubilization buffer (100 μl, Promega, Madison, Wis.) was added to each well and plates were incubated overnight to allow solubilization of the formazan crystals. Absorbance then was read at 570 nm using a microplate reader.

The subject of a further series is E. coli, ATTC 25922. Description: Lawn-spotting antibacterial assay (E. coli). The class given is cell-based, Escherichia coli. The note with it: 5 μl spotted, inactive segments up to 1 mg/ml.
In another series the test system is porcine neutrophils. Briefly: Neutrophil chemotaxis, modified Boyden chamber. Particulars: peptide at 0.05 μM, 30 min. The series is classed as cell-based. The protocol: Influence of PR-39 on neutrophil chemotaxis. Chemotaxis of porcine neutrophils was measured by the procedure of Salak et al. (1993). Briefly, PR-14, PR15, PR-16, PR-26, or PR-39 (30 μl in Dulbecco's Modified Eagle's medium) were placed in the bottom chamber of a modified Boyden chamber (Neuro Probe, Cabin John, Md.) and porcine neutrophils (50 μl at 5×10^6 cells/ml) were placed in the top chamber. The chambers were incubated at 37° C. for 30 min. Cells that migrated through the porous membrane (pore size 5 μm) were stained using LeukoStat solution and enumerated. Five microscope fields were counted and the cells that migrated through the membrane were standardized to the medium control and referred to as the migration index.

Series [3] relates to 47 kDa neutrophil cytosol protein. Briefly: Ligand-blot binding assay with biotinylated PR-39, porcine cytosol. Particulars: biotinylated PR-39 probe.
The next series deals with Salmonella choleraesuis. The series is classed as cell-based. The protocol: as §1

Sequence of recombinant p47^phox (P14598 whole entry, species assumed): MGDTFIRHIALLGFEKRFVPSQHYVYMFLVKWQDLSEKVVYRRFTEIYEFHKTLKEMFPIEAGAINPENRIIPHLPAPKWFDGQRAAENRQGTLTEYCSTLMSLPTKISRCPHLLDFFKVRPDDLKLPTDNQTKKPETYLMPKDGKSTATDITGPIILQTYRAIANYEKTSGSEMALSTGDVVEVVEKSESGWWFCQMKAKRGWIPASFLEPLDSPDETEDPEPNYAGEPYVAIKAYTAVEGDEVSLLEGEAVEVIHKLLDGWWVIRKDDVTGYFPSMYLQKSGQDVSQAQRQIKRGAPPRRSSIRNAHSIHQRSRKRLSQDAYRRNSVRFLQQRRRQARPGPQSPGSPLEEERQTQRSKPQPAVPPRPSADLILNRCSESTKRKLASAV
Method for Escherichia coli, K88: Briefly, 50 μl of twofold serial dilutions (128 to 0.25 μM) of synthetic peptides were dispensed into wells of 96-well tissue culture plates. Bacteria (E. coli, ATCC 25922; E. coli, K88; S. typhimurium, fresh isolate from a dog; Salmonella choleraesuis ATCC 6962; Streptococcus suis, fresh isolate from porcine spleen; and Staphylococcus aureus) from sheep-blood or brain-heart-infusion agar plates were standardized to 0.5 McFarland in demineralized water using a radiometer/sensititre (Chelsea Instrument Ltd., England). The water/bacteria suspension (100 μl) was immediately transferred to 10 ml of cation-adjusted Muller-Hinton broth and 50 μl of the bacterial suspension then were added to each well of the microtiter plate. Plates were incubated for 20 hr. at 37° C. and MICs were determined. Ten microliters of bacterial suspensions in Muller-Hinton broth also were diluted to determine the actual bacterial concentration using standard colony forming unit (CFU) counting. After determination of the MICs, 10 μl of each bacteria-peptide suspension were plated on sheep-blood or brain-heart-infusion agar plates and incubated for 24 hr. at 37° C. to determine the MBCs. MBC was considered that peptide concentration that inhibited 99.9% of the original CFUs (NCCLS, 1990). • (iv) PAE.

Regarding `CC[C@H](C)[C@H](NC(=O)[C@H](CCCNC(=N)N)NC(=O)[C@@H]1CCCN1C(=O)[C@@H]1CCCN1C(=O)[C@H](CC(C)C)NC(=O)[C@H](CCCNC(=N)N)NC(=O)[C@@H]1CCCN1C(=O)[C@@H]1CCCN1C(=O)[C@H](Cc1ccccc1)NC(=O)[C@H](Cc1ccccc1)NC(=O)[C@@H]1CCCN1C(=O)[C@@H]1CCCN1C(=O)[C@@H]1CCCN1C(=O)[C@H](CCCNC(=N)N)NC(=O)[C@@H]1CCCN1C(=O)[C@H](CCCNC(=N)N)NC(=O)[C@@H]1CCCN1C(=O)[C@H](CC(C)C)NC(=O)[C@H](Cc1ccc(O)cc1)NC(=O)[C@@H]1CCCN1C(=O)[C@@H]1CCCN1C(=O)[C@H](CCCNC(=N)N)NC(=O)[C@@H]1CCCN1C(=O)[C@H](CCCNC(=N)N)NC(=O)[C@H](CCCNC(=N)N)NC(=O)[C@@H](N)CCCNC(=N)N)C(=O)N1CCC[C@H]1C(=O)N1CCC[C@H]1C(=O)NCC(=O)N[C@@H](Cc1ccccc1)C(=O)N1CCC[C@H]1C(=O)N1CCC[C@H]1C(=O)N[C@@H](CCCNC(=N)N)C(=O)N[C@@H](Cc1ccccc1)C(=O)N1CCC[C@H]1C(=O)N1CCC[C@H]1C(=O)N[C@@H](CCCNC(=N)N)C(=O)N[C@@H](Cc1ccccc1)C(=O)N1CCC[C@H]1C(=O)O` [PR-39] (H-RRRPRPPYLPRPRPPPFFPPRLPPRIPPGFPPRFPPRFP-OH; N-terminus and C-terminus assumed), the “antibacterial activity (clear zone on bacterial lawn)” value in [1] is “had antibacterial activity”; with E. coli, ATTC 25922, “had antibacterial activity”. Moreover, in the series with S. typhimurium (0.1 MIC), the “PAE (growth delay)” value was “slight growth delay”. Moreover, the PAE entry in the series on S. typhimurium (1 MIC) and in the series with S. typhimurium (8 MICs) was “significantly increased” each time. The “inhibition of binding of biotinylated PR-39 to recombinant p47phox” value is listed as “completely blocked” on recombinant p47^phox (tenfold excess of unlabeled peptide) and 90% at recombinant p47^phox (unlabeled peptide 0.06 μM, equimolar to labeled). Also, the “antibacterial activity (clear zones on overlaid gel)” value with E. coli, ATCC 25922 was “antibacterial activity”. Moreover, the MBC against Escherichia coli, K88 was 4 µM (≈ 18.9 µg/mL); with Salmonella choleraesuis, 4 µM (≈ 18.9 µg/mL). Further, the MIC came out at 2 µM (≈ 9.44 µg/mL) with Escherichia coli, K88 and 2 µM (≈ 9.44 µg/mL) in the series with Salmonella choleraesuis. The “binding to p67phox” value in the series on p67^phox is recorded as “did not bind”. Further, the “concentration at which cytotoxicity occurred” value in [2] amounted to 500 nM. The neutrophil viability result in the series with neutrophils is reported as “did not affect neutrophil viability”. Further, in the series with porcine neutrophils, the “neutrophil chemotaxis (migration index)” value is reported as “chemotactic agents”. In addition, the “binding to 47 kDa cytosolic protein” value in series [3] was “bound”.

As a reminder, the MBC is the lowest tested concentration that kills the bacteria rather than only halting them. A lower MBC goes with more potent killing. As a reminder, the MIC is the lowest concentration found to suppress growth. A low value points to inhibition by little substance.
